Numbered stars: 1 amine (or outer) side, 2 acyl side, 3 side chain; on linkers, the order of the positions; unused ones are H or OH. Square brackets hold non-standard residues; d marks the D form. Side chains are listed from the residue outwards. Peptide text beside a SMILES is read from it. * marks the point of attachment. C20 diacid = O=C(O)CCCCCCCCCCCCCCCCCCC(=O)*; γGlu = O=C(O)[C@H](CCC(=O)[*:2])N[*:1]; AEEA = NCCOCCOCC(=O)O; Aib = CC(C)(N)C(=O)O

From patent US20260201008A1, “SECRETIN-DERIVED GLP1R SELECTIVE AGONISTS” (GUBRA A/S, priority 2023, published 2026) come the findings set out here.

One series concerns the target GLP1R (Homo sapiens, UniProt P43220). The experiment in a line: hGLP1R potency, cAMP accumulation in CHO-K1 cells stably overexpressing hGLP1R. The class given is cell-based. More on the design: host or cells: CHO-K1. The settings on record: for Selectivity: SCTR EC50/GLP1R EC50 ratio; for EC50: cAMP accumulation, CHO-K1 cells overexpressing hGLP1R, read-out: pEC50 hGLPR1 (converted). In outline:
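Thawed cells go straight into buffer containing 0.5 mM IBMX and 0.05% casein, get graded compound doses for 30 min at room temperature, and are then assayed for accumulated cAMP by time-resolved FRET. Human GLP-1(7-36) serves as positive control; EC50 is derived by nonlinear regression.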

Series [1] can be described thus: Turbidity of crude library peptides (absorbance at 600 nm). The settings on record: Physical stability of peptides. The series is classed as physicochemical. In short, it runs like this: (§1)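 Crude peptides at 267 μM in 50 mM sodium acetate pH 4.0 or 50 mM sodium phosphate pH 7.0, pre-incubated 1-2 h at room temperature, then 4 μM final ThT added. Turbidity read first as A600. ThT fluorescence (ex 450/em 480 nm) read every 10 min for 72 h at 40° C, with 5 min shaking before each read; fibril formation = average emission.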

The target of the next series is SCTR (Homo sapiens, UniProt P47872). The experiment in a line: hSCTR potency, cAMP accumulation in CHO-K1 cells stably overexpressing hSCTR. The class given is cell-based. More on the design: alternatively Euroscreen ES-712-AF; FAST-0161L; host or cells: CHO-K1. The settings on record: cAMP accumulation, CHO-K1 cells overexpressing hSCTR; read-out: pEC50 hSCTR (converted). In short, it runs like this: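 Read-out is TR-FRET cAMP detection, recorded one hour after reagent addition, in CHO-K1 cells stably overexpressing hSCTR. Cells in DPBS containing 0.05% casein and 0.5 mM IBMX are exposed to graded peptide doses for 30 min at room temperature, with human secretin as reference agonist.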
Sequence of SCTR (P47872 23-440): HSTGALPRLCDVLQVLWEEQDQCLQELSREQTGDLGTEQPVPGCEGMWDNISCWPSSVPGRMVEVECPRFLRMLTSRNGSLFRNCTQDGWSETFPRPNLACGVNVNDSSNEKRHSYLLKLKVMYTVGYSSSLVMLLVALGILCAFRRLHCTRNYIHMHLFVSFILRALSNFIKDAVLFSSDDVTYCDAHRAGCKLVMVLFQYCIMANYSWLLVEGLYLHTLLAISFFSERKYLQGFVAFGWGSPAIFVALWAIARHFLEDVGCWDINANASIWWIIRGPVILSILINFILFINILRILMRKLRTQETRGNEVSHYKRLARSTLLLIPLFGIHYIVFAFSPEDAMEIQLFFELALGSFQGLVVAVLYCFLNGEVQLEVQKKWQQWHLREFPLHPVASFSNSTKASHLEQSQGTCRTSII

Series [2] can be described thus: Fibril formation of crude library peptides (Thioflavin T). The class given is physicochemical. Also on record: key: average ThT fluorescence emission at 480 nm (ex 450 nm), raw units. The settings on record: Physical stability of peptides. In short, it runs like this:
as §1

Sequence of GLP1R (P43220 24-463): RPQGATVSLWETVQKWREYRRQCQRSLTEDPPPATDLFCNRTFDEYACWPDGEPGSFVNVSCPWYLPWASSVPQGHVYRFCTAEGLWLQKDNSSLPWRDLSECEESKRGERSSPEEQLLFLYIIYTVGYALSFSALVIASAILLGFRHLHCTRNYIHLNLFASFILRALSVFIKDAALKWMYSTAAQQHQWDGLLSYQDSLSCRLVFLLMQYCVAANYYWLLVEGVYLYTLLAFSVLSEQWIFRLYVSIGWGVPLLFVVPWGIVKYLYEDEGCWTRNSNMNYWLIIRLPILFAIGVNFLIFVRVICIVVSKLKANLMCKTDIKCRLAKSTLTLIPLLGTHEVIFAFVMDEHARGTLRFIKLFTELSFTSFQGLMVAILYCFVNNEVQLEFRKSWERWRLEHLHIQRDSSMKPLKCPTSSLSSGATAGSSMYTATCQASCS

`CC(C)C[C@H](NC(=O)[C@H](Cc1ccccc1)NC(=O)[C@H](CCCNC(=N)N)NC(=O)[C@H](CCC(N)=O)NC(=O)[C@@H](NC(=O)[C@H](C)NC(=O)[C@H](C)NC(=O)[C@H](CCC(=O)O)NC(=O)[C@H](CCC(=O)O)NC(=O)[C@H](CCCCNC(=O)COCCOCCNC(=O)COCCOCCNC(=O)CC[C@H](NC(=O)CCCCCCCCCCCCCCCCCCC(=O)O)C(=O)O)NC(=O)[C@H](CC(C)C)NC(=O)[C@H](CCC(=O)O)NC(=O)[C@H](CO)NC(=O)[C@@H](NC(=O)[C@H](CC(=O)O)NC(=O)[C@H](CO)NC(=O)[C@@H](NC(=O)[C@H](Cc1ccccc1)NC(=O)[C@@H](NC(=O)CNC(=O)[C@H](CCC(=O)O)NC(=O)C(C)(C)NC(=O)[C@@H](N)Cc1c[nH]cn1)[C@@H](C)O)[C@@H](C)O)C(C)C)[C@@H](C)O)C(=O)N[C@@H](CCC(=O)O)C(=O)N[C@@H](Cc1c[nH]cn1)C(=O)N[C@@H](CC(C)C)C(=O)N[C@H](C(N)=O)C(C)C` [compound 55] (H-H[Aib]EGTFTSDVSELK([AEEA-AEEA-γGlu-C20 diacid])EEAATQRFLEHLV-NH2): the Selectivity on GLP1R was determined as 16315. The EC50 on GLP1R was 0.01 nM; at SCTR, 158 nM. Further, the “Turbidity (pH 7)” value in series [1] was 0.09. This molecule also gave a Fibril formation in series [2] of 6162.

On to `CC(C)C[C@H](NC(=O)[C@H](Cc1ccccc1)NC(=O)[C@H](CCCNC(=N)N)NC(=O)[C@H](CCC(N)=O)NC(=O)[C@H](CCC(=O)O)NC(=O)[C@H](C)NC(=O)[C@H](C)NC(=O)[C@H](CCC(=O)O)NC(=O)[C@H](CCC(=O)O)NC(=O)[C@H](CCCCNC(=O)COCCOCCNC(=O)COCCOCCNC(=O)CC[C@H](NC(=O)CCCCCCCCCCCCCCCCCCC(=O)O)C(=O)O)NC(=O)[C@H](CC(C)C)NC(=O)[C@H](Cc1ccccc1)NC(=O)[C@H](CO)NC(=O)[C@@H](NC(=O)[C@H](CC(=O)O)NC(=O)[C@H](CO)NC(=O)[C@@H](NC(=O)[C@H](Cc1ccccc1)NC(=O)[C@@H](NC(=O)CNC(=O)[C@H](CCC(=O)O)NC(=O)C(C)(C)NC(=O)[C@@H](N)Cc1c[nH]cn1)[C@@H](C)O)[C@@H](C)O)C(C)C)C(=O)N[C@@H](CCC(=O)O)C(=O)N[C@@H](Cc1c[nH]cn1)C(=O)N[C@@H](CC(C)C)C(=O)N[C@H](C(N)=O)C(C)C` [compound 56] (H-H[Aib]EGTFTSDVSFLK([AEEA-AEEA-γGlu-C20 diacid])EEAAEQRFLEHLV-NH2), for which, on GLP1R, the Selectivity is 179887 and the EC50 is 0.0398 nM. Besides, the “Turbidity (pH 7)” value in series [1] is given as 0.10. The EC50 at SCTR is 7940 nM. This molecule also returned a Fibril formation in series [2] of 11030.

`CC(C)C[C@H](NC(=O)[C@H](Cc1ccccc1)NC(=O)[C@H](CCCNC(=N)N)NC(=O)[C@H](CCC(N)=O)NC(=O)[C@H](C)NC(=O)[C@H](C)NC(=O)[C@H](C)NC(=O)[C@@H](NC(=O)[C@H](CCC(=O)O)NC(=O)[C@H](CCCCNC(=O)COCCOCCNC(=O)COCCOCCNC(=O)CC[C@H](NC(=O)CCCCCCCCCCCCCCCCCCC(=O)O)C(=O)O)NC(=O)[C@H](CC(C)C)NC(=O)[C@H](CCC(=O)O)NC(=O)[C@H](CO)NC(=O)[C@@H](NC(=O)[C@H](CC(=O)O)NC(=O)[C@H](CO)NC(=O)[C@@H](NC(=O)[C@H](Cc1ccccc1)NC(=O)[C@@H](NC(=O)CNC(=O)[C@H](CCC(=O)O)NC(=O)C(C)(C)NC(=O)[C@@H](N)Cc1c[nH]cn1)[C@@H](C)O)[C@@H](C)O)C(C)C)[C@@H](C)O)C(=O)N[C@@H](CCC(=O)O)C(=O)N[C@@H](Cc1c[nH]cn1)C(=O)N[C@@H](CC(C)C)C(=O)N[C@H](C(N)=O)C(C)C` [compound 57] (H-H[Aib]EGTFTSDVSELK([AEEA-AEEA-γGlu-C20 diacid])ETAAAQRFLEHLV-NH2): at GLP1R, the Selectivity was 212618 and the EC50 is 0.0251 nM. The “Turbidity (pH 7)” value in series [1] is reported as 0.08. Moreover, at SCTR, the EC50 was 5010 nM. For the same molecule, the Fibril formation in series [2] is 4882.

`CC(C)C[C@H](NC(=O)[C@H](Cc1ccccc1)NC(=O)[C@H](CCCNC(=N)N)NC(=O)[C@H](CCC(N)=O)NC(=O)[C@H](CCC(N)=O)NC(=O)[C@H](C)NC(=O)[C@H](C)NC(=O)[C@@H](NC(=O)[C@H](CCC(=O)O)NC(=O)[C@H](CCCCNC(=O)COCCOCCNC(=O)COCCOCCNC(=O)CC[C@H](NC(=O)CCCCCCCCCCCCCCCCCCC(=O)O)C(=O)O)NC(=O)[C@H](CC(C)C)NC(=O)[C@H](Cc1ccc(O)cc1)NC(=O)[C@H](CO)NC(=O)[C@@H](NC(=O)[C@H](CC(=O)O)NC(=O)[C@H](CO)NC(=O)[C@@H](NC(=O)[C@H](Cc1ccccc1)NC(=O)[C@@H](NC(=O)CNC(=O)[C@H](CCC(=O)O)NC(=O)C(C)(C)NC(=O)[C@@H](N)Cc1c[nH]cn1)[C@@H](C)O)[C@@H](C)O)C(C)C)[C@@H](C)O)C(=O)N[C@@H](CCC(=O)O)C(=O)N[C@@H](Cc1c[nH]cn1)C(=O)N[C@@H](CC(C)C)C(=O)N[C@H](C(N)=O)C(C)C` [compound 58] (H-H[Aib]EGTFTSDVSYLK([AEEA-AEEA-γGlu-C20 diacid])ETAAQQRFLEHLV-NH2): on GLP1R, the Selectivity is listed as 35408 and the EC50 is 0.0251 nM. Moreover, in series [1], the “Turbidity (pH 7)” value worked out at 0.08. In addition, at SCTR, the EC50 is 1000 nM. This molecule also came in with a Fibril formation in series [2] of 22040.

For the molecule `CC(C)C[C@H](NC(=O)[C@H](Cc1ccccc1)NC(=O)[C@H](CCCNC(=N)N)NC(=O)[C@H](CCC(N)=O)NC(=O)[C@H](CO)NC(=O)[C@H](C)NC(=O)[C@H](C)NC(=O)C(C)(C)NC(=O)[C@H](CCC(=O)O)NC(=O)[C@H](CCCCNC(=O)COCCOCCNC(=O)COCCOCCNC(=O)CC[C@H](NC(=O)CCCCCCCCCCCCCCCCCCC(=O)O)C(=O)O)NC(=O)[C@H](CC(C)C)NC(=O)[C@H](CCCNC(=N)N)NC(=O)[C@H](CO)NC(=O)[C@@H](NC(=O)[C@H](CC(=O)O)NC(=O)[C@H](CO)NC(=O)[C@@H](NC(=O)[C@H](Cc1ccccc1)NC(=O)[C@@H](NC(=O)CNC(=O)[C@H](CCC(=O)O)NC(=O)C(C)(C)NC(=O)[C@@H](N)Cc1c[nH]cn1)[C@@H](C)O)[C@@H](C)O)C(C)C)C(=O)N[C@@H](CCC(=O)O)C(=O)N[C@@H](Cc1c[nH]cn1)C(=O)N[C@@H](CC(C)C)C(=O)N[C@H](C(N)=O)C(C)C` [compound 59] (H-H[Aib]EGTFTSDVSRLK([AEEA-AEEA-γGlu-C20 diacid])E[Aib]AASQRFLEHLV-NH2), at GLP1R, the Selectivity stood at 4314 and the EC50 was 0.0316 nM. For the same molecule, the “Turbidity (pH 7)” value in series [1] is reported as 0.09. At SCTR, the EC50 was 126 nM. In addition, in series [2], the Fibril formation is given as 13939.

As for `CC(C)C[C@H](NC(=O)[C@H](Cc1ccccc1)NC(=O)[C@H](CCCNC(=N)N)NC(=O)[C@H](CCC(N)=O)NC(=O)[C@H](C)NC(=O)[C@H](C)NC(=O)[C@H](C)NC(=O)[C@H](CCC(=O)O)NC(=O)[C@H](CCC(=O)O)NC(=O)[C@H](CCCCNC(=O)COCCOCCNC(=O)COCCOCCNC(=O)CC[C@H](NC(=O)CCCCCCCCCCCCCCCCCCC(=O)O)C(=O)O)NC(=O)[C@H](CC(C)C)NC(=O)[C@H](CCCNC(=N)N)NC(=O)[C@H](CO)NC(=O)[C@@H](NC(=O)[C@H](CC(=O)O)NC(=O)[C@H](CO)NC(=O)[C@@H](NC(=O)[C@H](Cc1ccccc1)NC(=O)[C@@H](NC(=O)CNC(=O)[C@H](CCC(=O)O)NC(=O)C(C)(C)NC(=O)[C@@H](N)Cc1c[nH]cn1)[C@@H](C)O)[C@@H](C)O)C(C)C)C(=O)N[C@@H](CCC(=O)O)C(=O)N[C@@H](Cc1c[nH]cn1)C(=O)N[C@@H](CC(C)C)C(=O)N[C@H](C(N)=O)C(C)C` [compound 60] (H-H[Aib]EGTFTSDVSRLK([AEEA-AEEA-γGlu-C20 diacid])EEAAAQRFLEHLV-NH2), at GLP1R, the Selectivity is on record as 9419 and the EC50 was 0.0316 nM. Besides, in series [1], the “Turbidity (pH 7)” value stood at 0.09. The EC50 at SCTR is 251 nM. In series [2], this molecule came in with a Fibril formation of 11873.

Consider `CC(C)C[C@H](NC(=O)[C@H](Cc1ccccc1)NC(=O)[C@H](CCCNC(=N)N)NC(=O)[C@H](CCC(N)=O)NC(=O)[C@H](C)NC(=O)[C@H](C)NC(=O)[C@H](C)NC(=O)[C@H](CCC(=O)O)NC(=O)[C@H](CCC(=O)O)NC(=O)[C@H](CCCCNC(=O)COCCOCCNC(=O)COCCOCCNC(=O)CC[C@H](NC(=O)CCCCCCCCCCCCCCCCCCC(=O)O)C(=O)O)NC(=O)[C@H](CC(C)C)NC(=O)[C@H](Cc1ccc(O)cc1)NC(=O)[C@H](CO)NC(=O)[C@@H](NC(=O)[C@H](CC(=O)O)NC(=O)[C@H](CO)NC(=O)[C@@H](NC(=O)[C@H](Cc1ccccc1)NC(=O)[C@@H](NC(=O)CNC(=O)[C@H](CCC(=O)O)NC(=O)C(C)(C)NC(=O)[C@@H](N)Cc1c[nH]cn1)[C@@H](C)O)[C@@H](C)O)C(C)C)C(=O)N[C@@H](CCC(=O)O)C(=O)N[C@@H](Cc1c[nH]cn1)C(=O)N[C@@H](CC(C)C)C(=O)N[C@H](C(N)=O)C(C)C` [compound 61] (H-H[Aib]EGTFTSDVSYLK([AEEA-AEEA-γGlu-C20 diacid])EEAAAQRFLEHLV-NH2), for which, at GLP1R, the Selectivity was 66252 and the EC50 was 0.0126 nM. In addition, the “Turbidity (pH 7)” value in series [1] was found to be 0.09. For the same molecule, the EC50 on SCTR is 794 nM. In series [2], this molecule returned a Fibril formation of 9138.
